Measurements as given in patent US10561710B2, “Goblet cell replacement therapy” (University of Pittsburgh—Of the Commonwealth System of …, priority 2014, dated 2020).

Assays:
Type in all cases: in vivo, New Zealand white rabbits
[1] = system: conjunctival goblet cells; assay: Goblet cell number in treated blebs after modified trabeculectomy; conditions: rabbit modified trabeculectomy, average cell number per high-powered field, six central bleb cross-sections, vs untreated
Protocol: FIGS. 4A-4B: Increased goblet cells in treated blebs. […] (FIG. 4A) Goblet cell number was calculated using the average cell number per high-powered field from six consecutive central bleb cross-sections of each specimen. (FIG. 4B) Representative images (Masson's trichrome stain) show the number of conjunctival goblet cells (asterisks).
(§1) In the following studies, modified trabeculectomy was performed in New Zealand white rabbits using a 22 gauge angiocatheter inserted into the anterior chamber. Rabbit eyes were either untreated or treated with IP-10FL (SEQ ID NO: 12) or IP-10p (SEQ ID NO: 13) by intraoperative topical application. Untreated and injured bleb formation was confirmed and assessed weekly after the procedure. All animals were euthanized at the end of the six week study.
Goblet cells were also evaluated in treated and untreated blebs.

bleb tissue [2] = assay: Collagen in bleb tissue, Masson's trichrome staining with METAMORPH analysis; conditions: rabbit modified trabeculectomy, vs untreated
Protocol: FIGS. 3A-3B: Decreased fibrosis in treated blebs. […] Collagen was quantified using Masson's trichrome staining. […] Original magnifications ×100.
as §1
Collagen was quantified using Masson's trichrome staining.

bleb tissue [3] = assay: Neovascularization in bleb tissue by H&E staining (number of capillaries); conditions: rabbit modified trabeculectomy, low-power field in center of injured area, vs untreated
Protocol: FIGS. 2A-2B: Arrested angiogenesis in treated blebs. Neovascularization in the bleb tissue was assessed using H&E staining. (FIG. 2A) Quantitation of the number of capillaries, as determined by morphology, with a low-power field in the center of the injured area is shown in the graph. The data was derived from two independent experiments of at least three globes with each evaluated in three random low-power fields (shown are mean±SD, *P<0.05). […] Original magnifications ×100.
as §1
Next, angiogenesis was evaluated in treated and untreated blebs. Neovascularization in the bleb tissue was assessed by H&E staining.

bleb tissue [4] = assay: Histological grading of blebs after modified trabeculectomy (H&E, Masson's trichrome); conditions: rabbit modified trabeculectomy, intraoperative topical application, six week study, vs untreated
Protocol: as §1
To evaluate histological differences in treated and untreated blebs, the globes were embedded in paraffin and stained with hematoxylin and eosin (H&E) and Masson's trichrome. A-semi quantitative histological grading score was used to assess cellularity, collagen deposition (fibrosis) and inflammation to compare findings between the four animal groups (uninjured, control (injured), IP-10 full length treated and IP-10p treated).

[5] = system: conjunctival goblet cells; assay: Goblet cells in blebs treated with MMC, IP-10p or IP-10p as perioperative rescue at MMC surgery; conditions: rabbit modified trabeculectomy; MMC alone, or MMC then IP-10p as perioperative rescue
Protocol: FIGS. 5A-5B: Goblet cells in treated and untreated blebs. (FIG. 5A) Goblet cells were evaluated in treated and untreated blebs. Bleb tissue was treated with MMC alone, IP-10p alone, or IP-10p as a perioperative “rescue” treatment at the time of MMC surgery.
Modified trabeculectomy was performed in New Zealand white rabbits using a 22 gauge angiocatheter inserted into the anterior chamber.

| Substance | number of goblet cells in bleb tissue [1] | collagen deposition in bleb tissue (bleb tissue [2]) | number of capillaries present in blebs (bleb tissue [3]) | inflammation and fibrosis (semi-quantitative histological grading score; collagen content, elastic fiber thickness and orientation) (bleb tissue [4]) | goblet cells / goblet cell density in bleb tissue [5] |
| --- | --- | --- | --- | --- | --- |
| IP-10FL: Human IP-10 variant (IP-10FL), SEQ ID NO: 12; CXCR3 activator | increase in the number of goblet cells | significantly less collagen | significantly reduced the number of capillaries | reduction in inflammation and fibrosis |  |
| IP-10p: Human IP-10 fragment/variant, SEQ ID NO: 13, PESKAIKNLLKAVSKEMSKRSP | increase in the number of goblet cells | significantly less collagen | significantly reduced the number of capillaries | reduction in inflammation and fibrosis |  |
| mitomycin C [MMC] |  |  |  |  | marked decrease in goblet cells |
